Data on four compounds can be found in ChEMBL document CHEMBL4831492, “Design and synthesis of 2-(2-isonicotinoylhydrazineylidene)propanamides as InhA inhibitors with high antitubercular activity” (Eur J Med Chem, 2021).

Converted amounts (≈) assume the structure as drawn. The source made the active and inactive calls. The calls are words filed in the database; no cut-off is given here.

Data set [1] concerns Mycobacterium tuberculosis. Description: Antimycobacterial activity against drug susceptible Mycobacterium tuberculosis H37Rv assessed as minimal inhibitory concentration required for complete inhibition of mycobacterial growth incubated for 14 days. It is filed as functional. The conditions noted are these: 336 h, time 14 day.
For data set [2], the system named is Mycobacterium tuberculosis. The data set can be described thus: Antimycobacterial activity against drug susceptible Mycobacterium tuberculosis H37Rv assessed as minimal inhibitory concentration required for complete inhibition of mycobacterial growth incubated for 21 days. To be noted: 504 h, time 21 day. It is filed as functional.
Data set [3] concerns Mycobacterium kansasii. The data set can be described thus: Antimycobacterial activity against drug resistant Mycobacterium kansasii 6509/96 assessed as minimal inhibitory concentration required for complete inhibition of mycobacterial growth incubated for 7 days. It is filed as functional. To be noted: 6509/96, 168 h, time 7 day.
For data set [4], the system named is Mycobacterium kansasii. Description: Antimycobacterial activity against drug resistant Mycobacterium kansasii 6509/96 assessed as minimal inhibitory concentration required for complete inhibition of mycobacterial growth incubated for 14 days. It is filed as functional. To be noted: 6509/96, 336 h, time 14 day.
Data set [5] concerns Mycobacterium kansasii. The data set can be described thus: Antimycobacterial activity against drug resistant Mycobacterium kansasii 6509/96 assessed as minimal inhibitory concentration required for complete inhibition of mycobacterial growth incubated for 21 days. It is filed as functional. The conditions noted are these: 6509/96, 504 h, time 21 day.
The subject of data set [6] is Mycobacterium kansasii. Description: Antimycobacterial activity against drug resistant Mycobacterium kansasii 235/80 assessed as minimal inhibitory concentration required for complete inhibition of mycobacterial growth incubated for 7 days. It is filed as functional. The conditions noted are these: 235/80, 168 h, time 7 day.
Data set [7] deals with HepG2. Description: Cytotoxicity against human HepG2 cells assessed as reduction in cell viability incubated overnight followed by compound washout by MTT assay. It is filed as cell-based.
Data set [8] relates to HepG2. Description: Cytostatic activity in human HepG2 cells assessed as reduction in cell viability incubated overnight followed by compound washout and further incubated for 72 hrs in medium containing serum by MTT assay. To be noted: HepG2, 72 h. It is filed as functional, cell-based.
Data set [9] concerns Mycobacterium avium. Description: Antimycobacterial activity against drug resistant Mycobacterium avium 330/88 assessed as inhibition of mycobacterial growth at 125 uM incubated for 14 days. It is filed as functional, organism-based. The conditions noted are these: time 14.0 day.
Data set [10] has as its system Mycobacterium avium. The data set can be described thus: Antimycobacterial activity against drug resistant Mycobacterium avium 330/88 assessed as inhibition of mycobacterial growth at 125 uM incubated for 21 days. To be noted: time 21.0 day. It is filed as functional, organism-based.
Data set [11] deals with Mycobacterium kansasii. The data set can be described thus: Antimycobacterial activity against drug resistant Mycobacterium kansasii 235/80 assessed as inhibition of mycobacterial growth at 62.5 uM incubated for 14 days. It is filed as functional, organism-based. To be noted: time 14.0 day.
Data set [12] concerns Mycobacterium kansasii. The data set can be described thus: Antimycobacterial activity against drug resistant Mycobacterium kansasii 235/80 assessed as inhibition of mycobacterial growth at 62.5 uM incubated for 21 days. It is filed as functional, organism-based. To be noted: time 21.0 day.
Data set [13] can be described thus: Selectivity index, ratio of CC50 for cytotoxicity against human HepG2 cells to MIC for antimycobacterial activity against drug susceptible Mycobacterium tuberculosis H37Rv. It is filed as toxicity, cell-based. The conditions noted are these: read-out: Selectivity Index.
Data set [14] can be described thus: Selectivity index, ratio of CC50 for cytotoxicity against human HepG2 cells to MIC for antimycobacterial activity against drug susceptible Mycobacterium […]. It is filed as toxicity, cell-based. The conditions noted are these: read-out: Selectivity Index.
The test system of data set [15] is Mycobacterium avium. Description: Antimycobacterial activity against drug resistant Mycobacterium avium 330/88 assessed as inhibition of mycobacterial growth at 250 uM incubated for 14 days. It is filed as functional, organism-based. The conditions noted are these: time 14.0 day.
The test system of data set [16] is Mycobacterium avium. Description: Antimycobacterial activity against drug resistant Mycobacterium avium 330/88 assessed as inhibition of mycobacterial growth at 250 uM incubated for 21 days. It is filed as functional, organism-based. To be noted: time 21.0 day.
Data set [17] relates to Mycobacterium avium. The data set can be described thus: Antimycobacterial activity against drug resistant Mycobacterium avium 330/88 assessed as minimal inhibitory concentration required for complete inhibition of mycobacterial growth incubated for 14 days. To be noted: 330/88, 336 h, time 14 day. It is filed as functional.
For data set [18], the system named is Mycobacterium avium. The data set can be described thus: Antimycobacterial activity against drug resistant Mycobacterium avium 330/88 assessed as minimal inhibitory concentration required for complete inhibition of mycobacterial growth incubated for 21 days. It is filed as functional. To be noted: 330/88, 504 h, time 21 day.
Data set [19] deals with Mycobacterium kansasii. The data set can be described thus: Antimycobacterial activity against drug resistant Mycobacterium kansasii 235/80 assessed as minimal inhibitory concentration required for complete inhibition of mycobacterial growth incubated for 14 days. It is filed as functional. The conditions noted are these: 235/80, 336 h, time 14 day.
For data set [20], the system named is Mycobacterium kansasii. The data set can be described thus: Antimycobacterial activity against drug resistant Mycobacterium kansasii 235/80 assessed as minimal inhibitory concentration required for complete inhibition of mycobacterial growth incubated for 21 days. To be noted: 235/80, 504 h, time 21 day. It is filed as functional.
In data set [21] the test system is Mycobacterium tuberculosis. Description: Antimycobacterial activity against Mycobacterium tuberculosis H37Ra carrying pMC261/pVV16 plasmid assessed as bacterial growth inhibition incubated for 28 days by drop dilution method. It is filed as functional. The conditions noted are these: 672 h, time 28 day.
Data set [22] relates to Mycobacterium tuberculosis. Description: Inhibition of mycolic acid synthesis in Mycobacterium tuberculosis H37Ra assessed as decrease in production of trehalose monomycolates at MIC incubated for 24 hrs followed by 14C labelling and further incubated for 24 hrs by TLC based autoradiography analysis. It is filed as functional, organism-based. The conditions noted are these: time 48.0 hrs.

For data set [23], the system named is Mycobacterium tuberculosis. The data set can be described thus: Inhibition of mycolic acid synthesis in Mycobacterium tuberculosis H37Ra assessed as decrease in production of trehalose dimycolates at MIC incubated for 24 hrs followed by 14C labelling and further incubated for 24 hrs by TLC based autoradiography analysis. It is filed as functional, organism-based. The conditions noted are these: time 48.0 hrs.

The test system of data set [24] is Mycobacterium tuberculosis. The data set can be described thus: Inhibition of mycolic acid synthesis in Mycobacterium tuberculosis H37Ra assessed as decrease in production of mycolic acid at MIC incubated for 24 hrs followed by 14C addition and further incubated for 24 hrs by TLC based autoradiography analysis. It is filed as functional, organism-based. The conditions noted are these: time 48.0 hrs.

For data set [25], the system named is Mycobacterium tuberculosis. Description: Inhibition of mycolic acid synthesis in Mycobacterium tuberculosis H37Ra assessed as decrease in production of standard fatty acid at MIC incubated for 24 hrs followed by 14C labelling and further incubated for 24 hrs by TLC based autoradiography analysis. It is filed as functional, organism-based. To be noted: time 48.0 hrs.

As for `C/C(=N\NC(=O)c1ccncc1)C(=O)Nc1cccc(Cl)c1`, the MIC in data set [1] is 0.125 µM (≈ 0.0396 µg/mL); in data set [2] it was 0.125 µM (≈ 0.0396 µg/mL); in data set [3] it was 2 µM (≈ 0.633 µg/mL); in [4] it was 2 µM (≈ 0.633 µg/mL); in data set [5], 4 µM (≈ 1.27 µg/mL); in data set [6], 32 µM (≈ 10.1 µg/mL). Besides, the IC50 in data set [7] and in data set [8] was over 50 µM each time. Further, the result in data set [9], in data set [10], in [11] and in data set [12] was inactive. Besides, the values for the selectivity ratio in data set [13] and in data set [14] were over 400 and over 12.5, respectively.

`C/C(=N\NC(=O)c1ccncc1)C(=O)Nc1ccc(SC(F)(F)F)cc1`: the MIC is 0.5 µM (≈ 0.191 µg/mL) in data set [1]; 0.5 µM (≈ 0.191 µg/mL) in [2]; 4 µM (≈ 1.53 µg/mL) in data set [3]; 4 µM (≈ 1.53 µg/mL) in data set [4]; 4 µM (≈ 1.53 µg/mL) in [5]. For the same compound, the result in data set [15] and in [16] was inactive.

Take `C/C(=N\NC(=O)c1ccncc1)C(=O)Nc1ccc(I)cc1`: the MIC in data set [1] turned out to be 0.25 µM (≈ 0.102 µg/mL); in [2], 0.25 µM (≈ 0.102 µg/mL); in data set [17], 250 µM (≈ 102 µg/mL); in data set [18], 250 µM (≈ 102 µg/mL); in [3] it was 2 µM (≈ 0.816 µg/mL); in [4] it was 4 µM (≈ 1.63 µg/mL). Besides, the MIC amounted to 4 µM (≈ 1.63 µg/mL) in data set [5]; 8 µM (≈ 3.27 µg/mL) in [6]; 8 µM (≈ 3.27 µg/mL) in data set [19]; 8 µM (≈ 3.27 µg/mL) in data set [20]; 0.5 µM (≈ 0.204 µg/mL) in data set [21]. The inhibition entry in [22], in [23] and in data set [24] was “Active” in each case. The inhibition result in [25] was “inactive”. The concentration for half-maximal inhibition (IC50) in data set [7] and in data set [8] was over 50 µM in each case. Moreover, the selectivity ratio in [13] is over 200; in data set [14] it was over 12.5.

For `C/C(=N\NC(=O)c1ccncc1)C(=O)Nc1ccc(OC(F)(F)F)cc1`, the MIC in data set [1] was at most 0.03 µM; in data set [2] it was at most 0.03 µM; in [3] it was 2 µM (≈ 0.733 µg/mL); in [4], 2 µM (≈ 0.733 µg/mL); in data set [5], 4 µM (≈ 1.47 µg/mL); in [6], 8 µM (≈ 2.93 µg/mL). The figures for the MIC in data set [19], in [20] and in [21] were 8 µM (≈ 2.93 µg/mL), 16 µM (≈ 5.86 µg/mL) and 0.3 µM (≈ 0.11 µg/mL), respectively. In addition, the inhibition entry in [22], in [23] and in data set [24] was “Active” throughout. The inhibition result in data set [25] is “inactive”. Also, the half-inhibitory concentration (IC50) in data set [7] and in data set [8] was over 50 µM each time. The result in data set [9] and in data set [10] was inactive. In addition, the selectivity ratio was over 1670 in data set [13] and over 12.5 in data set [14].
